This assay deals with T1, SyHR (Synechocystis sp. PCC 7509, UniProt A0A9X9ZA75).
T1 sequence (A0A9X9ZA75 1-234): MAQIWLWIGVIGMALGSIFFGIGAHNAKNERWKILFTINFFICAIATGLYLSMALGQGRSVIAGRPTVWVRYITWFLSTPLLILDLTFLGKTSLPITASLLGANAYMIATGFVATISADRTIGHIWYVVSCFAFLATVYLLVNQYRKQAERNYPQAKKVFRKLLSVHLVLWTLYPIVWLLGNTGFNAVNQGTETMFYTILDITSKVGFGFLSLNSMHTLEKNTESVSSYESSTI
Briefly: absorption spectral shift titration, Hill fit. It is filed as binding.

Our source for the Kd values is article doi:10.1101/2025.07.01.658226v1 (biorxiv, 2025).

The term Kd denotes the constant that tells how readily two partners part at equilibrium.

Regarding `I` [d, I^−], the Kd is 210 ± 30 µM.

Take `Br` [b, Br^−]: the dissociation constant Kd was 110 ± 20 µM. Then `Cl` [a, Cl^−], with 280 ± 50 µM; and `O=[N+]([O-])O` [c, NO3^−], with 6150 ± 750 µM.
